# Data taken from BindingDB's records for doi:10.1111/cbdd.12142 (Delhi Institute of Pharmaceutical Sciences and Research, 2013).
# Target: Dipeptidyl peptidase 4 (Homo sapiens, UniProt P27487)
# Test: In vitro DPP IV enzyme inhibition assay
# Details: 37 °C
# Procedure: Following the manufacturer's guidelines, the assay was performed using 96-well flat-bottomed microtitre plate followed by addition of assay buffer, DPP IV enzyme and chromogenic substrate (HGly-Pro-pNA). Test compounds were dissolved in DMSO at different concentrations of 25, 50, 100, 200 µg/mL, and 20 µL were added to each well after further dilutions. The plate was incubated at 37°C for 10 min and read continuously at A-405 nm.
# Dipeptidyl peptidase 4, sequence (P27487 whole entry): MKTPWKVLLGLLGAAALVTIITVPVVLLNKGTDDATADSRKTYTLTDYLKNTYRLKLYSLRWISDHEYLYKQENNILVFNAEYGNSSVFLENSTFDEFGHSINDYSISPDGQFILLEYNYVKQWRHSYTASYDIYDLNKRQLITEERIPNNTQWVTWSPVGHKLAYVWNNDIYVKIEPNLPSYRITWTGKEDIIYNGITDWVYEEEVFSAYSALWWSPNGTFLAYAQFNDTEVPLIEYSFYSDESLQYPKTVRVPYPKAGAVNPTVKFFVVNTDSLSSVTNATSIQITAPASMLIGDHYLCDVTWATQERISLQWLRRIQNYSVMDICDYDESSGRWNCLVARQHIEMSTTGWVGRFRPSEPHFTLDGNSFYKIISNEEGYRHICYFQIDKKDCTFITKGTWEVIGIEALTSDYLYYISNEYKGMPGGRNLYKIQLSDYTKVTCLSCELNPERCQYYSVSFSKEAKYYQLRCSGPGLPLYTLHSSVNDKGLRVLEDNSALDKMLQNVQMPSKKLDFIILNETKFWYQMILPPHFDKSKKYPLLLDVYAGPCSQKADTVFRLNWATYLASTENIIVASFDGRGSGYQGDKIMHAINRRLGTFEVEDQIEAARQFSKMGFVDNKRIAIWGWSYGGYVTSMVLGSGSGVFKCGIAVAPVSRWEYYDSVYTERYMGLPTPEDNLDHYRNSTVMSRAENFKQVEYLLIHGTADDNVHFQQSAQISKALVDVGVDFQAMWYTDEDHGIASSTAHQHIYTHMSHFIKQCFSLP
row,Compound,IC50
1,O=C(CN1CCCC1C(=O)N1CCC(F)C1)N1CCCCC1 (centres undefined) [2‐[2‐(3‐fluoropyrrolidine‐1‐carbonyl)pyrrolidin‐1‐ yl]‐1‐(piperidin‐1‐yl)ethan‐1‐one],7.88 µM
2,O=C(CN1CCCC1C(=O)N1CCC(F)C1)N1CCCC1 (centres undefined) [2‐[2‐(3‐fluoropyrrolidine‐1‐carbonyl)pyrrolidin‐1‐ yl]‐1‐(pyrrolidin‐1‐yl)ethan‐1‐one],16.7 µM
3,O=C(CN1CCCC1C(=O)N1CCC(F)C1)N1CCCCCC1 (centres undefined) [1‐(azepan‐1‐yl)‐2‐[2‐(3‐fluoropyrrolidine‐1‐ carbonyl)pyrrolidin‐1‐yl]ethan‐1‐one],3.47 µM
4,O=C(C1CCCN1CCN1CCCCC1)N1CCC(F)C1 (centres undefined) [1‐{2‐[2‐(3‐fluoropyrrolidine‐1‐carbonyl)pyrrolidin‐1‐ yl]ethyl}piperidine],6.49 µM

# Results, then the molecule that gave them:
row,IC50,Compound
1,0.83 µM,O=C(CN1CCCC1C(=O)N1CCC(F)C1)N1CCN(c2ccccn2)CC1 (centres undefined) [2‐[2‐(3‐fluoropyrrolidine‐1‐carbonyl)pyrrolidin‐1‐ yl]‐1‐[4‐(pyridin‐2‐yl)piperazin‐1‐yl]ethan‐1‐one]
2,4.27 µM,O=C(C1CCCN1)N1CCC(F)C1 (centres undefined) [3‐fluoro‐1‐(pyrrolidine‐2‐carbonyl)pyrrolidine]
3,23.8 µM,CCN(CC)CCN1CCCC1C(=O)N1CCC(F)C1 (centres undefined) [diethyl({2‐[2‐(3‐fluoropyrrolidine‐1‐ carbonyl)pyrrolidin‐1‐yl]ethyl})amine]
4,30.2 µM,CN(C)CCN1CCCC1C(=O)N1CCC(F)C1 (centres undefined) [{2‐[2‐(3‐fluoropyrrolidine‐1‐carbonyl)pyrrolidin‐1‐ yl]ethyl}dimethylamine]
5,0.43 µM,O=C(CN1CCCC1C(=O)N1CCC(F)C1)N1CCN(c2ncccn2)CC1 (centres undefined) [2‐[2‐(3‐fluoropyrrolidine‐1‐carbonyl)pyrrolidin‐1‐ yl]‐1‐[4‐(pyrimidin‐2‐yl)piperazin‐1‐yl]ethan‐1‐ one]
